Values quoted from earlier work in US7951359B2, “Compositions and methods for therapy or prevention of chemotherapy-induced neuropathy” (Merck Serono SA, priority 2004, dated 2011).

Test system: CIPN caused by carboplatin/paclitaxel
Settings: 2 or 4 μg/kg sub coetaneous daily for 7 days; cited from earlier work

Substance: LIF: Recombinant leukemia inhibitor factor (LIF), another gp130 activator
- prevention of CIPN: ineffective at preventing CIPN
